We go through one compound from patent US7704924B2, “Library of compounds comprising pyrrolobenzodiazepine moieties” (Spirogen Limited, priority 1998, dated 2010).

SMILES strings stand for the structures.

The assay relates to U937 chronic human histiocytic leukemia cells or K562 human chronic myeloid leukemia cells. The assay can be described thus: MTT assay of the 27 member PBD library synthesised on crowns (photolytic cleavage, continuous incubation). In kind it is cell-based. The settings on record: 4 days, with or without UVA (365 nm, 2 h) not given. Here is the method: The ability of agents to inhibit the growth of U937 chronic human histiocytic leukemia cells or K562 human chronic myeloid leukemia cells in culture was measured using the MTT assay (Mosmann, 1983). This is based on the ability of viable cells to reduce a yellow soluble tetrazolium salt, 3-(4,5-dimethylthiazolyl)-2,5-diphenyltetrazolium bromide (MTT; Sigma Chemical Co.), to an insoluble purple formazan precipitate. Following drug treatment, the cells were transferred to 96-well microtitre plates with 10^4 cells per well and 8 wells per sample. The plates were incubated at 37° C. in a humidified atmosphere containing 5% CO2. Following incubation of the plates for 4 days (to allow control cells to increase in number by 10-fold), 20 μL of a 5 mg/mL solution of MTT in phosphate-buffered saline was added to each well and the plates incubated further for 5 hours. […] The optical density was then read at a wavelength of 550 nm on a Titertek Multiscan ELISA plate reader and the dose-response curve constructed. […]
Following incubation of the plates for 4 days (to allow control cells to increase in number by 10-fold), 20 μL of a 5 mg/mL solution of MTT in phosphate-buffered saline was added to each well and the plates further incubated for 5 hours. […] The optical density was then read at a wavelength of 550 nm on a Titertek Multiscan ELISA plate reader and the dose-response curve constructed.
(Tetrazolium assays rely on reduction of a dye to a coloured formazan, in cell work by metabolically active cells.)

As for `COc1cc2c(cc1OCc1ccccc1)N=C[C@@H]1CCCN1C2=O` [Benzyl DC-81, reference compound], the “% Control at 0.3 μM” value was 47.4%.
